What was measured:
TRPC6 ion channels = target: T1, TRPC6 ion channels (Mus musculus, UniProt Q61143); experiment: Fluorescent membrane potential (FMP) detection of TRPC6 activation; format: cell-based; details: M085 at 0.4 μM~30 μM; HEK293 cells permanently transfected with TRPC6
T1 construct: expressed in transfected cells; host or cells: HEK293 co-expressing M5 muscarinic receptor
T1 sequence (Q61143 1-930): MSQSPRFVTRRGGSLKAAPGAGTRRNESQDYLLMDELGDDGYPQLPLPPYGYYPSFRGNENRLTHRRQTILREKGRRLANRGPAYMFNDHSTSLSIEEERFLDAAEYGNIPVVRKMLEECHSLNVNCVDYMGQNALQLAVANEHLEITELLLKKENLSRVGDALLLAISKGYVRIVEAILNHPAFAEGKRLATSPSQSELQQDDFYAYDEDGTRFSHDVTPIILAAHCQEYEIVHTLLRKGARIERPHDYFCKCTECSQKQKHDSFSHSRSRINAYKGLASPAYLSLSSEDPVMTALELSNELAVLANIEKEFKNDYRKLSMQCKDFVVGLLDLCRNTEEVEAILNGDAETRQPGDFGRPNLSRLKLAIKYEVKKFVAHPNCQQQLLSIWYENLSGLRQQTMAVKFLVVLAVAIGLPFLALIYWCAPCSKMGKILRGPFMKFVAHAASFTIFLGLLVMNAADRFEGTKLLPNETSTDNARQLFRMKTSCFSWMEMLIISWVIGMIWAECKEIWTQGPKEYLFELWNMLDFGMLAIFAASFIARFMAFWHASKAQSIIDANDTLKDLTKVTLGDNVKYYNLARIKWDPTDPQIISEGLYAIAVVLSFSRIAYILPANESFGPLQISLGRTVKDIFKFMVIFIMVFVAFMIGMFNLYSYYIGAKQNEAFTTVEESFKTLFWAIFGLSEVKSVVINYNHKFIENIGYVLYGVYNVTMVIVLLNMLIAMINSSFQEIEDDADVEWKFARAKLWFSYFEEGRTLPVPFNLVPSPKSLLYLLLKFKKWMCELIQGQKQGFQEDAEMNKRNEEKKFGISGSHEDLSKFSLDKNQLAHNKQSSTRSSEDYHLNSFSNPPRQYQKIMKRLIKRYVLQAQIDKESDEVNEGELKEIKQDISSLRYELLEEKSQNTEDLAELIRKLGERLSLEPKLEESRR
Experimental: Pyrazolopyrimidines and their derivatives activated TRPC6 ion channels (FIG. 1). In HEK293 cells permanently transfected with TRPC6 ion channels, M085 was used as activator to detect the fluorescent membrane potential. Firstly, cells were stained with FLIPR membrane potential dyes (FMP). At 30 s, 0.1 μM, 0.4 μM, 1.1 μM, 3.3 μM, 10 μM, 30 μM of M085 were added, respectively.

[1] = system: HEK293 cells which were not transfected with TRPC6 ion channels; experiment: Fluorescent membrane potential detection in non-transfected control cells; format: cell-based; details: M085 0.1-30 μM
mice TRPC6 = target: T2, mice TRPC6 (Mus musculus, UniProt Q61143); experiment: Fluorescence calcium flux (Fluo4) detection of TRPC6 activation; format: cell-based; details: HEK293 cells expressing mice TRPC6
T2 construct: expressed in transfected cells; host or cells: HEK293
T2 sequence (Q61143 1-930): T1 sequence (Q61143 1-930)
Experimental: Similar fluorescence calcium flux was used to detect the effect of M085 on [Ca^2+] concentration in HEK293 cells expressing mice TRPC6. The cells were stained using Ca^2+ indicator Fluo4. At 30 s, 0.1 μM, 0.4 μM, 1.1 μM, 3.3 μM, 10 μM, 30 μM of M085 were added. […] Wherein, M086 was subjected to fluorescent calcium flux detection and fluorescent membrane potential detection, respectively.

TRPC6 channel [2] = target: T3, TRPC6 channel (Mus musculus, UniProt Q61143); experiment: Whole-cell patch clamp assay, TRPC6 activation; format: cell-based; details: for activation effect for TRPC6 channel (whole-cell patch clamp): HEK293 cells clamped at -100~+100 mV
T3 construct: expressed in transfected cells; host or cells: HEK293
T3 sequence (Q61143 1-930): T1 sequence (Q61143 1-930)
Description: HEK293 cells were clamped at −100˜+100 mV in the whole-cell recording mode.

TRPC6 channel [3] = target: T3, TRPC6 channel; experiment: Whole-cell patch clamp assay, TRPC6 inhibition (carbachol-activated); format: cell-based; details: for inhibition of TRPC6 channel (whole-cell patch clamp): HEK293 cells clamped at -100~+100 mV
Experimental: M107 is representative (FIG. 3B, C). HEK293 cells were clamped at −100˜+100 mV in whole-cell recording mode. TRPC6 ion channels activated by carbachol (CCh, 30 μM) was inhibited by M107 (20 μM). At −100˜+100 mV, 20 μM of M107 provided 60% and 20% of inhibition rate for CCh (n=5).

[4] = system: MCF7 human breast cancer cell line; experiment: MTT cytotoxic activity, MCF7; format: cell-based; details: 72 h, read-out: IC50 cytotoxic activity in vitro
Experimental: (§1) After the cells in logarithmic growth phase were digested with 0.25% trypsin-EDTA, a cell suspension at a certain concentration was prepared. Depending on cell growth rate, they were inoculated in 96-well plates at 1000-2000 cells/well. To each well 100 μL of the cell suspension was added. After 24 h, fresh medium containing various concentrations of the compounds or the corresponding solvent were added at 100 μL per well (DMSO final concentration <0.1%). 5 to 7 dose groups were arranged for each test compound. Each group comprised at least 3 parallel wells. After further culturing at 37° C. for 72 h, the supernatant was discarded. 100 μL of fresh serum-free medium containing 0.5 mg/mL MTT was added to each well, further cultured for 2 h. After the supernatant was discarded, to each well was added 200 μL DMSO to dissolve MTT formazan precipitate. After mixing homogeneously by a microoscillator, optical density (OD) was measured at 450 nm of reference wavelength, and at 570 nm of detection wavelength by a Microplate reader. The tumor cells treated by the solvent control was used as the control group. The inhibition rate of tumor cells for the compounds were calculated by the following equation and IC50 was calculated by the half of inhibition equation: […]

[5] = system: H460 human lung cancer cell line; experiment: MTT cytotoxic activity, H460; format: cell-based; details: 72 h, read-out: IC50 cytotoxic activity in vitro
Experimental: as §1

[6] = system: KB human oral epithelium carcinoma cell line; experiment: MTT cytotoxic activity, KB; format: cell-based; details: 72 h, read-out: IC50 cytotoxic activity in vitro
Experimental: as §1

[7] = system: Lncap human prostate cancer cell line; experiment: MTT cytotoxic activity, Lncap; format: cell-based; details: 72 h, read-out: IC50 cytotoxic activity in vitro
Experimental: as §1

[8] = system: Pc3 human prostate cancer cell line; experiment: MTT cytotoxic activity, Pc3; format: cell-based; details: 72 h, read-out: IC50 cytotoxic activity in vitro
Experimental: as §1

[9] = system: Du145 human prostate cancer cell line; experiment: MTT cytotoxic activity, Du145; format: cell-based; details: 72 h, read-out: IC50 cytotoxic activity in vitro
Experimental: as §1

[10] = system: RM-1 mouse prostate cancer cell line; experiment: MTT cytotoxic activity, RM-1; format: cell-based; details: RM-1, MTT, 72 h; read-out: IC50 cytotoxic activity in vitro
Experimental: as §1

[11] = system: prostate cancer RM-1 transplanted tumor; experiment: Mice prostate cancer RM-1 transplanted tumor model; format: in vivo; details: for Inhibition rate of tumor growth / Tumor weight / body weight of Animals, Final / body weight of Animals, Initial: male C57/BL6 mice, i.p., Docetaxel 10 mg/kg × 3, M110 50 mg/kg × 4
Experimental: Male C57/BL6 mice (18-22 g) were used. The experiment procedures are summarized as follows: mice who had prostate cancer RM-1 and grown well were sacrificed by cervical dislocation. Under sterile conditions, tumor mass growing well was stripped off, homogenized, diluted with physiological saline in 1:4. Each mouse was inoculated 0.2 mL of the tumor solution in the armpit and back (approximately 2*10^6 cells). On the next day, the animals were randomized into groups and the administration began. Compound M110 was administered at 50 mg/kg by intraperitoneal injection at 24 h after inoculation. The dosing volume was 0.1 mL/10 g. At the same time, docetaxel control group and solvent control group were set. As for the docetaxel group, the animals were administered by intraperitoneal injection at 10 mg/kg dose, the dosing volume was 0.1 mL/10 g. After continuous administration for 10 days, the animals were sacrificed by cervical dislocation, weighed the body and the tumor, respectively. Inhibition rate of tumor growth (%) was calculated, and the results were statistically processed.

CCOC(=O)N1CCC(c2cc(O)n3nc(C)c(-c4ccc(F)cc4)c3n2)CC1 [Compound M085]
membrane depolarization (FMP fluorescence) (TRPC6 ion channels): increase of membrane depolarization
fluorescent change (FMP) [1]: no significantly fluorescent change
activating effect for TRPC6 ion channel (fluorescence calcium flux) (mice TRPC6): exhibited activating effect
intracellular [Ca2+] (mice TRPC6; M085 at 3.3 μM~30 μM, Fluo4): significantly increased
activation effect for TRPC6 channel (whole-cell patch clamp) (TRPC6 channel [2]): have activation effect
EC50 (TRPC6 channel [2]; HEK293 cells, concentration response 0.04-10 μM, n=5-7): 2.5 µM

Cc1nn2c(O)cc(C3CCN(C(=O)OCc4ccccc4)CC3)nc2c1-c1ccc(F)cc1 [Compound M086]
activating effect for TRPC6 ion channel (fluorescence calcium flux) (mice TRPC6): exhibited activating effect
activation effect for TRPC6 channel (whole-cell patch clamp) (TRPC6 channel [2]): have activation effect

Cc1nn2c(O)cc(C3CCN(C(=O)OCc4ccccc4)CC3)nc2c1-c1ccc(Cl)cc1 [Compound M091]
activating effect for TRPC6 ion channel (fluorescence calcium flux) (mice TRPC6): exhibited activating effect
activation effect for TRPC6 channel (whole-cell patch clamp) (TRPC6 channel [2]): have activation effect

CCOC(=O)N1CCC(c2cc(O)n3nc(C)c(-c4ccc(C(F)(F)F)cc4)c3n2)CC1 [Compound M092]
activating effect for TRPC6 ion channel (fluorescence calcium flux) (mice TRPC6): exhibited activating effect
activation effect for TRPC6 channel (whole-cell patch clamp) (TRPC6 channel [2]): have activation effect

Cc1nn2c(O)cc(C3CCN(C(=O)OC(C)(C)C)CC3)nc2c1-c1ccc(F)cc1 [Compound M107]
inhibition rate for CCh-activated TRPC6 current, first value (TRPC6 channel [3]; 20 μM compound, CCh 30 μM, at -100~+100 mV (first printed, -100 mV), n=5): 60%
inhibition rate for CCh-activated TRPC6 current, second value (TRPC6 channel [3]; 20 μM compound, CCh 30 μM, at -100~+100 mV (second printed, +100 mV), n=5): 20%
inhibition of TRPC6 channel (whole-cell patch clamp) (TRPC6 channel [3]): inhibited TRPC6 channel

CCOC(=O)N1CCC(C)(c2cc(O)n3nc(C)c(-c4ccc(F)cc4)c3n2)CC1 [Compound M110]
inhibition of TRPC6 channel (whole-cell patch clamp) (TRPC6 channel [3]): inhibited TRPC6 channel
IC50 [4]: 12.1 µM
IC50 [5]: 21.9 µM
IC50 [6]: 9.47 µM
IC50 [7]: 4.33 µM
IC50 [8]: 30.8 µM
IC50 [9]: > 100 µM
IC50 [10]: 25.6 µM
Inhibition rate of tumor growth [11]: 23%
Tumor weight [11]: 2.0 ± 0.73 g
body weight of Animals, Final [11]: 21.33 ± 1.51 g
body weight of Animals, Initial [11]: 20.00 ± 0.76 g
pharmacological activity in vivo on RM-1 transplanted tumor growth ([11]; mice): inhibit growth of prostate cancer RM-1 transplanted tumor

CC(=O)O[C@@]12CO[C@@H]1C[C@H](O)[C@@]1(C)C(=O)[C@H](O)C3=C(C)[C@@H](OC(=O)[C@H](O)[C@@H](NC(=O)OC(C)(C)C)c4ccccc4)C[C@@](O)([C@@H](OC(=O)c4ccccc4)[C@H]21)C3(C)C [Docetaxel, docetaxel, reference compound]
Inhibition rate of tumor growth [11]: 32%
Tumor weight [11]: 1.77 ± 0.61 g
body weight of Animals, Final [11]: 18.43 ± 2.17 g
body weight of Animals, Initial [11]: 20.00 ± 1.07 g
